Measurements taken from patent publication US20050119330A1, “Use of antiproliferative agents in the treatment and prevention of pulmonary proliferative vascular diseases” (priority 2003, published 2005).
Values joined by “and” are separate entries in the source; they are usually repeats but may differ in a detail not shown here. Equal entries are not always repeated.

Tests used:
[1] = test system: pneumonectomized, monocrotaline-treated rats; test: Acute model of pulmonary arterial hypertension (left pneumonectomy, monocrotaline on Day 7); type: in vivo, Sprague-Dawley rats; conditions: for right ventricular systolic pressure (RVSP): Day 35; for mean pulmonary arterial pressure (mPAP): measured Day 35; for vascular occlusion score (VOS), 0 to 2: 25 consecutive small pulmonary arteries per rat
Method: Methods: On Day, 0, thirty pathogen-free 13-week-old, male Sprague-Dawley rats (350-400 g) were intubated, anesthetized with halothane (0.5%), and then underwent left pneumonectomy via thoracotomy as described in Faul, J. L. et al. (2000) Am. J. Respir. Crit. Care Med. 162:2252-2258; and Nishimura, R. et al., (2001) Am. J. Respir. Crit. Care Med. 163:498-502. On Day 7, rats received a single subcutaneous injection in the right hind limb of the plant alkaloid monocrotaline (60 mg/kg; Sigma, St. Louis, Mo.). Rats that were not subjected to any treatment were also included in the study (“normal” or “N”).
Twenty-four rats received monocrotaline (60 mg/kg s.c.), seven days after pneumonectomy. […] Rats that were not subjected to any treatment were also included in the study (“normal” or “N”). Rats in the control group, PMV (n=6), received vehicle (V) by oral gavage every day, beginning on Day 5.
On Day 35, rats underwent pulmonary artery catheterization for measurements of mean pulmonary artery pressures and right ventricular systolic pressures. Mean arterial, mean pulmonary arterial and right ventricular systolic blood pressures (mPAP and RVSP, respectively) were measured as described by Faul et al. and Nishimura et al. After exsanguination, the right lung, right ventricle and left ventricle plus septum were collected for histology. The organs were weighed and preserved and the RV/LV&S ratios determined. Organs fixed in formalin were embedded in paraffin, cut in 3 micron sections and stained with hematoxylin and eosin, and with elastin-von Geison stain.
The severity of neointimal formation was scored on elastin-van Geison (EVG)-stained lung sections: the absence of neointimal formation equals 0; the presence of neointimal proliferation causing less than 50% luminal narrowing equals 1; luminal narrowing greater than 50% equals 2. Immunohistochemistry was performed on formalin-fixed, paraffin-embedded lung sections using antibodies to α-smooth-muscle actin (Dako, 1:30 dilution, linked to alkaline phosphatase), and CD31, a monoclonal antibody with specificity for endothelial cells lining the vascular lumen (Dako, 1:40 dilution, detected using avidin-biotin-peroxidase method). Samples of right lung were immediately placed in 2.5% paraformaldehyde and routinely processed for transmission electron microscopy. Reverse-transcription PCR was used to amplify portions of the rat endothelial nitric oxide synthase gene (eNOS, GenBank U02534) and actin B (GenBank V01217) from rat lung. Primer sequences for eNOS were: 5′-[…]-3′ (SEQ ID NO:1) and 5′-[…]-3′ (SEQ ID NO:2). Five micrograms of total lung RNA were reverse-transcribed and amplified by PCR as described in Aoki, Y., et al. (1997) Am. J. Physiol. 272:L272-284. Endothelial NOS protein (60 μg) was analyzed by Western immunoblotting as described in Zhao, G. et al. (2000) Am. J. Physiol. 279:L958-L966, using anti-eNOS primary antibody (Santa Cruz sc-8311).

[2] = test system: pneumonectomized, monocrotaline-treated rats; test: Chronic model of pulmonary arterial hypertension (monocrotaline four weeks after pneumonectomy), rescue treatment; type: in vivo
Method: Methods: Rats were treated as described in Example 1, except that monocrotaline was administered four weeks after pneumonectomy. Pulmonary hypertension developed at Week 8 and increased in severity until death at Week 13. […] Hemodynamic measurements were performed on control and treated rats in order to determine mean arterial pressures and pressures at the right ventricle.
A quantitative analysis of neointimal luminal obstruction on 25 consecutive small pulmonary arteries from each rat in Group N, PMV0w, PMV2w, PMS2w, PMS6w, and PMS13w was performed (FIGS. 10A-10D). Histological samples were prepared and stained using Elastin-van-Geison (EVG) stain, ×600. Vessels were assessed for neointimal proliferative lesions and scored: Grade 0 for no evidence of neointimal formation, Grade 1 for less than 50% luminal occlusion, Grade 2 for >50% luminal occlusion.

[3] = test system: pneumonectomized, monocrotaline treated rats; conditions: Faul et al. 2000; Nishimura 2001; cited from earlier work
[4] = Group PMS2w: two weeks of treatment
[5] = Group PMS6w: 6 weeks of treatment
[6] = after 13 weeks of simvastatin treatment

| Structure (SMILES) | right ventricular systolic pressure (RVSP) ([1]; Group PMS5-14: 2 mg/kg/day oral gavage Days 5-14) | mean pulmonary arterial pressure (mPAP) ([1]; Group PMS5-14: simvastatin 2 mg/kg/day oral gavage Days 5-14) | vascular occlusion score (VOS), 0 to 2 ([1]; Group PMS5-14) | right ventricular systolic pressure (RVSP) ([1]; Group PMS5-35: 40 mg/kg/day oral gavage Days 5-35) | mean pulmonary arterial pressure (mPAP) ([1]; Group PMS5-35: simvastatin 40 mg/kg/day oral gavage Days 5-35) | vascular occlusion score (VOS), 0 to 2 ([1]; Group PMS5-35) | right ventricular systolic pressure (RVSP) ([1]; Group PMS15-35: 40 mg/kg/day oral gavage Days 15-35) | mean pulmonary arterial pressure (mPAP) ([1]; Group PMS15-35: simvastatin 40 mg/kg/day oral gavage Days 15-35) | vascular occlusion score (VOS), 0 to 2 ([1]; Group PMS15-35) | mean pulmonary arterial pressure (mPAP) ([2]; Group PMS2w: 2 mg/kg/day for two weeks from Week 11) | right ventricular systolic pressure (RVSP) [2, 4] | vascular occlusion score (VOS), 0 to 2 [2, 4] | mean pulmonary arterial pressure (mPAP) ([2]; Group PMS6w: 2 mg/kg/day for 6 weeks from Week 11) | right ventricular systolic pressure (RVSP) [2, 5] | vascular occlusion score (VOS), 0 to 2 [2, 5] | vascular occlusion score (VOS), 0 to 2 ([2]; Group PMS13w: 13 weeks of treatment) | mean pulmonary arterial pressure (mPAP) [2, 6] | right ventricular systolic pressure (RVSP) [2, 6] | survival ([2]; simvastatin 2 mg/kg/day oral gavage from Week 11, no mortality up to Week 23, vehicle 0% survival at Week 15) | development of pulmonary arterial hypertension and neointimal formation [3] |
| --- | --- | --- | --- | --- | --- | --- | --- | --- | --- | --- | --- | --- | --- | --- | --- | --- | --- | --- | --- | --- |
| CCC(C)(C)C(=O)O[C@H]1C[C@@H](C)C=C2C=C[C@H](C)[C@H](CC[C@@H]3C[C@@H](O)CC(=O)O3)[C@H]21 [simvastatin] | 66±12 mm Hg | 44±4 mm Hg | 0.78±0.40 | 37±4 mm Hg | 27±3 mm Hg and 27 mm Hg | 1.5 and 0.59±0.46 | 54±10 mm Hg | 38±3 mm Hg | 0.93±0.38 | 36±2 mm Hg | 53±7 mmHg | 1.34 | 24±3 mm Hg | 34±3 mmHg | 0.83 | 0.65 | 22±3 mm Hg | 30±3 mmHg | 100% |  |
| CC(C)[C@]12O[C@H]1[C@@H]1O[C@]13[C@]1(O[C@H]1C[C@H]1C4=C(CC[C@@]13C)C(=O)OC4)[C@@H]2O [triptolide] |  |  |  |  |  |  |  |  |  |  |  |  |  |  |  |  |  |  |  | could inhibit the development of pulmonary arterial hypertension and neointimal formation |
